4 compounds from ChEMBL document CHEMBL3397032, “Computer-aided discovery of aminopyridines as novel JAK2 inhibitors” (Bioorg Med Chem, 2015) can be followed below.

pIC50: −log10 of the molar value. Activity calls are given as the source filed them. The calls are words filed in the database; no cut-off is given here.

In one assay the test system is HT-29. The assay is described as follows: Effect on total JAK2 protein level in IL4-induced human HT-29 cells at 1 uM to 100 uM by SDS-polyacrylamide gel electrophoresis and Western blot method. In kind it is functional, cell-based.
Assay [1] addresses Tyrosine-protein kinase JAK2 (Homo sapiens, UniProt O60674). In words: Inhibition of IL4-induced JAK2 autophosphorylation in human HT-29 cells by SDS-polyacrylamide gel electrophoresis and Western blot method. Type of assay: cell-based. On the technique in general: Immunoblotting shows a protein as a band on a membrane.

Sequence of Tyrosine-protein kinase JAK2 (O60674 whole entry): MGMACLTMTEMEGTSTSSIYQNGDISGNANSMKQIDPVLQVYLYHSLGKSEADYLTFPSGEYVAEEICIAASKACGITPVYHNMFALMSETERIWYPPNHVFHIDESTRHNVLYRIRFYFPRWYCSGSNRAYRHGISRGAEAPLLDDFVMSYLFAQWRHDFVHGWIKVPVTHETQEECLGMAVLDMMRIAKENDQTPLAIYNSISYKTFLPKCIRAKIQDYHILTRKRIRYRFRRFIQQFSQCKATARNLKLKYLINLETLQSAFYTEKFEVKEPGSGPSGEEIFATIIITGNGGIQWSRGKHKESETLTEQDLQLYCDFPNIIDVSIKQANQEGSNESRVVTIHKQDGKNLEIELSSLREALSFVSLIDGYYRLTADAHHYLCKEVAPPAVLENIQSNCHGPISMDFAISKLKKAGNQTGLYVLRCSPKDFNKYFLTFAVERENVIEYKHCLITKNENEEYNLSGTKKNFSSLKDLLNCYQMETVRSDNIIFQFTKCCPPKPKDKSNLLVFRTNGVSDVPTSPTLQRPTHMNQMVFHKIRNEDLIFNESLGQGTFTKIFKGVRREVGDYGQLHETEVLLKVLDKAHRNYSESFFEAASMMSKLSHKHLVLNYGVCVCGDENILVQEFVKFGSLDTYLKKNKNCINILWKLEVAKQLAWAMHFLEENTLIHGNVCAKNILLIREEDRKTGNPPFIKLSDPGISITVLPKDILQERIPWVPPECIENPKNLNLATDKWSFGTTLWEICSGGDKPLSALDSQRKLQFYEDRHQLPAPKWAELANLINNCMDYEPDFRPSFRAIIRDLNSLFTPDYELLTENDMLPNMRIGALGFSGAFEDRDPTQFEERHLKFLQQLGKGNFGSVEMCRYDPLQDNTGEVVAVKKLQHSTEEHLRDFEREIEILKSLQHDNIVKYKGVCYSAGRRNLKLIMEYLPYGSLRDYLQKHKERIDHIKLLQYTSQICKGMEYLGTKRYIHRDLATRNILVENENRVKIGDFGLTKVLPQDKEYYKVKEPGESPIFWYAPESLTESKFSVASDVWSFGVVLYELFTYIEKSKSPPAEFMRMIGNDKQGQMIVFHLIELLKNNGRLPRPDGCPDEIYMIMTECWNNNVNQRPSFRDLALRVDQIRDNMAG

In the case of `CCCCN(C)c1ncc(NS(=O)(=O)c2ccccc2C)cc1C(=O)O`, in the assay on HT-29, the outcome was inactive.

As usually defined, the pIC50 is −log10 of the IC50, conventionally taken in molar units. Lower therefore signals a large IC50. On to `COc1cccc(NC(=O)c2cnc(Nc3cccc(OC)c3)c([N+](=O)[O-])c2)c1`, for which, in the assay with HT-29, the result was inactive. Also, the pIC50 in assay [1] was 5.07.

In the case of `COc1cccc(NC(=O)c2cnc(N3CCN(c4ccccc4OC)CC3)c([N+](=O)[O-])c2)c1`, the result in the assay on HT-29 was inactive. Also, the pIC50 in assay [1] was 5.02.

`Cc1ccccc1S(=O)(=O)Nc1cnc(N2CCCCC2)c(C(=O)O)c1`: the result with HT-29 was inactive. In addition, in assay [1], the pIC50 is 5.16.
